The series can be described thus: Brain:plasma exposure after repeat oral administration PND 11-70. The series is classed as in vivo, mice. The note with it: NPC1 (−/−) (Balb/c background), mouse, brain and plasma. The protocol:
24 NPC1 (−/−) mice were treated per oral gavage with AZ-3102-00 from post-natal day 11 (P11) to post-natal-day 70 (P70). Age-matched control mice included 6 NPC (−/−) and 4 NPC (+/−) mice treated with vehicle, and 4 NPC (+/+) mice received AZ-3102-00. After the last treatment on P70, NPC (−/−) mice (n=4 per timepoint) were euthanized by IP injection of 600 mg/kg pentobarbital at the following timepoints: 30 min, 1 h, 2 h, 4 h, 8 h, and 24 h. Control mice were also sacrificed after the last treatment (not time critical). Terminal blood was collected by heart puncture in EDTA coated tubes. Blood plasma was collected by centrifugation (3000×g for 10 minutes at room temperature) and 50 μL plasma aliquots were transferred to 1.5 mL tubes, frozen on dry ice and stored at −80° C.
24 NPC1 (−/−) mice (groups D to I) were treated per oral gavage (10 mL/kg) with AZ-3102-00 from post-natal day 11 (P11) to post-natal-day 70 (P70). Dosing will start at 1.5 mg/kg from P11 to P25, followed by 3 mg/kg from P26 to P70. Control mice included 6 NPC1 (−/−) and 4 NPC (+/−) mice treated with vehicle and 4 NPC (+/+) mice received AZ-3102-00 (groups A to C).
After the last treatment on P70, NPC (−/−) mice (n=4 per timepoint; groups D to I) were euthanized by IP injection of 600 mg/kg pentobarbital a the following timepoints: 30 min, 1 h, 2 h, 4 h, 8 h, and 24 h. Control mice (groups A, B and C) were also sacrificed after the last treatment (not time critical).
At 30 min (Group D), 1 h (+/−5 min. Group E), 2 h (+/−5 min. Group F), 4 h (+/−5 min. Group G), 8 h (+/−5 min. Group H), and 24 h (+/−5 min. Group 1) (all time critical) after the last treatment on P70, mice were euthanized by i.p. injection.
Plasma samples were first mixed for protein precipitation with a solution of acetonitrile containing 50 ng/mL of AZ-3101 (internal standard). After 5 minutes incubation at room temperature, the samples were centrifuged for 5 minutes (13000 rpm, 4° C.) and the supernatant was diluted 10-fold in ultrapure water with 0.1% formic acid.
Brain tissues were homogenized in a solution of ultrapure water:methanol (1:1) with 0.1% formic acid (4 mL for each gram of tissue) using a FastPrep 24™ Microtube homogenizer (MP Biomedicals, USA). Brain homogenates were mixed for protein precipitation with a solution of acetonitrile containing 10 ng/mL of AZ-3101 (internal standard). After 5 minutes incubation at room temperature, the samples were centrifuged for 5 minutes (13000 rpm, 4° C.) and the supernatant was diluted 10-fold in ultrapure water with 0.1% formic acid.
Diluted plasma and brain tissue supernatants were injected into an Agilent LC system (Agilent, USA) by an automated sample injector (SIL-30, Shimadzu, USA). […] Data were calibrated and quantified using the Analyst™ data system (AB Sciex, version 1.6.3). […]

Read-outs that look alike come from different tables or passages of the source.

These results are taken from US12116344B2, “Crystalline forms of a pharmaceutical compound” (Azafaros B.V., priority 2020, dated 2024).

Turning to `OC[C@H]1[C@@H](O)[C@H](O)[C@@H](O)CN1CCCCCOCc1ccc(-c2ccccc2)c(F)c1` [AZ-3102], the Kp is 1.37 (female, Female mice, read-out: Brain:Plasma Ratio AUC0-24); 0.41 (female, Female mice, read-out: Brain:Plasma Ratio Cmax); 0.95 (male, Male mice, read-out: Brain:Plasma Ratio AUC0-24); 0.26 (male, Male mice, read-out: Brain:Plasma Ratio Cmax).
